Square brackets hold non-standard residues; d marks the D form. Ends that are not written are not given here. Nle = CCCC[C@H](N)C(=O)O; CoA = coenzyme A
Legend:
[1] = tested on: zebrafish embryos; experiment: Phenotype after injection into zebrafish embryos; assay type: in vivo; conditions: injected into zebrafish embryos; compared with reference inhibitor
Excerpt: A norleucine (Nle) residue was therefore tried in place of methionine in order to try to circumvent the synthesis problem.

[2] = molecular target: T1, NatA (Homo sapiens, UniProt P41227); experiment: Nt-acetylation inhibitor assay, immunoprecipitated NatA complex, HPLC quantification; assay type: biochemical; conditions: inhibitors tested against NatA; all compounds with C-terminal amide
T1 construct: endogenous in cells
T1 sequence (P41227 1-235): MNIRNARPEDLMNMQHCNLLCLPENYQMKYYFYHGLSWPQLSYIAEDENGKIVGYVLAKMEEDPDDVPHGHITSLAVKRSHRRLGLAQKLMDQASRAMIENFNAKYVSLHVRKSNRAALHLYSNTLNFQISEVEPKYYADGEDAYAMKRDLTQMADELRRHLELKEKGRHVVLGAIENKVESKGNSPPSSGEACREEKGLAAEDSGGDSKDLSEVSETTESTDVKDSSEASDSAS
T1 sequence (Q9BXJ9 1-866 partner): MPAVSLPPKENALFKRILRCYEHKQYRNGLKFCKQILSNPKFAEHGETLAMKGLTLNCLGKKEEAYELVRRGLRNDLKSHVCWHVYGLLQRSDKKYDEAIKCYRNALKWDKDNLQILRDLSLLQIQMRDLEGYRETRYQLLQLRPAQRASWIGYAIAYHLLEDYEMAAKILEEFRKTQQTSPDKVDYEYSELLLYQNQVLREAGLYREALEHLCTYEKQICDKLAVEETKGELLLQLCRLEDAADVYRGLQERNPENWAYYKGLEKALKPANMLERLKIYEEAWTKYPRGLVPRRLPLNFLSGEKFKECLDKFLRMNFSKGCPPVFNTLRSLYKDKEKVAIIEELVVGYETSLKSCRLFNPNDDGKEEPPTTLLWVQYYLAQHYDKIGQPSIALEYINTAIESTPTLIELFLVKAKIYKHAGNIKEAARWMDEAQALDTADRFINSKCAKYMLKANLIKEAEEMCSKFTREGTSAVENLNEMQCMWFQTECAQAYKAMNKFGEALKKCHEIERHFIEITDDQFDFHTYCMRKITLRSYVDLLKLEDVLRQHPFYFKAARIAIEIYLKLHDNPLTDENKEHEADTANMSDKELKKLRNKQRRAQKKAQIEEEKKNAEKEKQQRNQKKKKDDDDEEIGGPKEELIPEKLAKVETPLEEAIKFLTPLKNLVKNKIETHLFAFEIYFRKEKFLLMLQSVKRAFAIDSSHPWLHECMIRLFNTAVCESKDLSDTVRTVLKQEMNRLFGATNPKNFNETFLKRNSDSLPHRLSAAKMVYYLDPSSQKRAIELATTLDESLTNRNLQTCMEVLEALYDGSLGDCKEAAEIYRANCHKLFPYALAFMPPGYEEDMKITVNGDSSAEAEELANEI
Description: The IC50 values for these compounds were tested as described in Foyn H, et al. (2013) “Design, Synthesis, and Kinetic Characterization of Protein N-Terminal Acetyltransferase Inhibitors”. ACS Chem Biol 8:1121-1127; and Foyn H, et al. (2017) “DTNB-Based quantification of in vitro enzymatic N-terminal acetyltransferase activity”, Methods Mol. Biol. 1574:9-15. Briefly, a colorimetric acetylation assay, 5,5′-dithiobis-(2-nitrobenzoic acid) (DTNB) assay was used to measure the catalytic activity of NATs after incubation with NAT inhibitors. In the DTNB assay, thiols present in the enzymatic product, CoA, cleaves DTNB and produces 2-nitro-5-thiobenzoate (NTB-), which absorbs light with a wavelength of 412 nm. NTB- forms in a 1:1 molar ratio to the thiol groups present in the sample. Therefore, NTB- was quantified by measuring the absorbance at 412 nm and indirectly measures peptide Nt-acetylation. Recombinant purified NAT enzyme was mixed with different substrate peptides (300 uM, custom-made) and Ac-CoA (300 uM) in acetylation buffer (50 mM Tris/HEPES pH 8.5-7.4, 100 mM NaCl, 10% glycerol and 0.2 mM EDTA) and with inhibitor concentration (0-500 uM). After 30 min-60 min incubation at 37° C., the enzyme activity was quenched with quenching buffer (3.2 M guanidinium-HCl, 100 mM sodium phosphate dibasic pH 6.8). Triplicates were run for all positive samples, while negative controls were duplicated. As a negative control, reactions without enzyme were incubated at 37° C. before the reaction was quenched and added enzyme. In order to measure CoA production, 2 mM DTNB (dissolved in 100 mM sodium phosphate dibasic pH 6.8 and 10 mM EDTA) was added to the quenched reaction and the absorbance at 412 nm was measured with a spectrophotometer (Epoc). Background absorbance (determined in negative controls) was subtracted from the absorbance determined in each individual reaction. Thiophenolate production was quantified assuming ε=13.7×103 M−1 cm−1. […] A similar Nt-acetylation reaction was performed as previously described and the enzymatic activity was quenched with a final concentration of 1% TFA and analyzed by HPLC (Evjenth R, Van Damme P, Gevaert K, Arnesen T (2013) HPLC-based Quantification of in vitro N-terminal Acetylation. Methods Mol Biol 981:95-102.).
In order to ensure selectivity towards NatA, the CoA-Ac-SSNIeP (SEQ ID NO: 4) was tested against other NATs. Using the Cheng-Prusoff equation for competitive inhibitors, the dissociation constant, Ki, was calculated from IC50 values and [S]/Km ratios for all the NATs.

[3] = molecular target: T2, Naa10 (Homo sapiens, UniProt P41227); experiment: Nt-acetylation inhibitor assay (DTNB), Naa10; assay type: biochemical; conditions: selectivity, panel of human NATs
T2 sequence (P41227 1-235): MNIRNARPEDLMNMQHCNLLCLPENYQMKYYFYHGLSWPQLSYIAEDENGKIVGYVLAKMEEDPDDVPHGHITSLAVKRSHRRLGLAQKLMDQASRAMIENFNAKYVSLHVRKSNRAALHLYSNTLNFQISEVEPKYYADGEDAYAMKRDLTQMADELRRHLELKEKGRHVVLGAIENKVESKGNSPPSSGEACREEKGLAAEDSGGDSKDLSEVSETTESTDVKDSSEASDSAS
Description: The IC50 values for these compounds were tested as described in Foyn H, et al. (2013) “Design, Synthesis, and Kinetic Characterization of Protein N-Terminal Acetyltransferase Inhibitors”. ACS Chem Biol 8:1121-1127; and Foyn H, et al. (2017) “DTNB-Based quantification of in vitro enzymatic N-terminal acetyltransferase activity”, Methods Mol. Biol. 1574:9-15. Briefly, a colorimetric acetylation assay, 5,5′-dithiobis-(2-nitrobenzoic acid) (DTNB) assay was used to measure the catalytic activity of NATs after incubation with NAT inhibitors. […] Therefore, NTB- was quantified by measuring the absorbance at 412 nm and indirectly measures peptide Nt-acetylation. […] In order to measure CoA production, 2 mM DTNB (dissolved in 100 mM sodium phosphate dibasic pH 6.8 and 10 mM EDTA) was added to the quenched reaction and the absorbance at 412 nm was measured with a spectrophotometer (Epoc). Background absorbance (determined in negative controls) was subtracted from the absorbance determined in each individual reaction. Thiophenolate production was quantified assuming ε=13.7×103 M−1 cm−1. […] A similar Nt-acetylation reaction was performed as previously described and the enzymatic activity was quenched with a final concentration of 1% TFA and analyzed by HPLC (Evjenth R, Van Damme P, Gevaert K, Arnesen T (2013) HPLC-based Quantification of in vitro N-terminal Acetylation. Methods Mol Biol 981:95-102.). […]

[4] = molecular target: T3, Naa80 (Homo sapiens, UniProt Q93015); experiment: Nt-acetylation inhibitor assay for Naa80; assay type: biochemical
T3 construct: The PCR product containing the CDS was inserted into the TOPO TA vector; made in house; host or cells: E. coli BL21 Star (DE3)
T3 sequence (Q93015 1-308 isoform Q93015-2): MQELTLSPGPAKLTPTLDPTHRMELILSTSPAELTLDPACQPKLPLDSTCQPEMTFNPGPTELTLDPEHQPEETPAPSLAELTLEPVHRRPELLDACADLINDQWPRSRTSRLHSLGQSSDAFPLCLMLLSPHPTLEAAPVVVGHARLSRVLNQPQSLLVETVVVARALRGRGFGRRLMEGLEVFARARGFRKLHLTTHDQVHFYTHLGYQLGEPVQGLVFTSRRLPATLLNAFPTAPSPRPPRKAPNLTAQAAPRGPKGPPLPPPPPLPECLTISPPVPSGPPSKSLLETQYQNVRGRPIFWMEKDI
Description: FIG. 10: (A) IC50 values for inhibitors measured in an Nt-acetylation inhibitor assay for Naa80. (B) Ki-values for CoA-Ac-DDDI-NH2 (SEQ ID NO: 6) for different human NATs measured in an Nt-acetylation inhibitor assay. All reactions were performed at least three times and in triplicate; errors bars represent standard deviation of each measurement.
The IC50 values for these compounds were tested as described in Foyn H, et al. (2013) “Design, Synthesis, and Kinetic Characterization of Protein N-Terminal Acetyltransferase Inhibitors”. ACS Chem Biol 8:1121-1127; and Foyn H, et al. (2017) “DTNB-Based quantification of in vitro enzymatic N-terminal acetyltransferase activity”, Methods Mol. Biol. 1574:9-15. Briefly, a colorimetric acetylation assay, 5,5′-dithiobis-(2-nitrobenzoic acid) (DTNB) assay was used to measure the catalytic activity of NATs after incubation with NAT inhibitors. In the DTNB assay, thiols present in the enzymatic product, CoA, cleaves DTNB and produces 2-nitro-5-thiobenzoate (NTB-), which absorbs light with a wavelength of 412 nm. NTB- forms in a 1:1 molar ratio to the thiol groups present in the sample. Therefore, NTB- was quantified by measuring the absorbance at 412 nm and indirectly measures peptide Nt-acetylation. […] After 30 min-60 min incubation at 37° C., the enzyme activity was quenched with quenching buffer (3.2 M guanidinium-HCl, 100 mM sodium phosphate dibasic pH 6.8). Triplicates were run for all positive samples, while negative controls were duplicated. As a negative control, reactions without enzyme were incubated at 37° C. before the reaction was quenched and added enzyme. In order to measure CoA production, 2 mM DTNB (dissolved in 100 mM sodium phosphate dibasic pH 6.8 and 10 mM EDTA) was added to the quenched reaction and the absorbance at 412 nm was measured with a spectrophotometer (Epoc). Background absorbance (determined in negative controls) was subtracted from the absorbance determined in each individual reaction. Thiophenolate production was quantified assuming ε=13.7×103 M−1 cm−1. For NatA and NatB enzyme complex inhibition, immunoprecipitation was performed using Naa15 ab (custom made, Arnesen T, Anderson D, Baldersheim C, Lanotte M, Varhaug J E, Lillehaug J R. (2005) Identification and characterization of the human ARD1-NATH protein acetyltransferase complex. Biochemical J 386(Pt 3):433-43.) or Naa20 ab (Nat5, abnova) respectively and protein A/G magnetic agarose beads (Millipore). A similar Nt-acetylation reaction was performed as previously described and the enzymatic activity was quenched with a final concentration of 1% TFA and analyzed by HPLC (Evjenth R, Van Damme P, Gevaert K, Arnesen T (2013) HPLC-based Quantification of in vitro N-terminal Acetylation. Methods Mol Biol 981:95-102.).
We then pursued Naa80 bisubstrate analogue inhibitors based on the results of the substrate screening and the sequences of the cellular substrates processed β- and γ-actin. We synthesized bisubstrate conjugates of Coenzyme A coupled to the tetrapeptides MDEL-NH2 (SEQ ID NO: 8), DDDI-NH2 (SEQ ID NO: 6), EEEI-NH2 (SEQ
ID NO: 7), and MLGT-NH2 (SEQ ID NO: 52) via an acetamide (Ac) linker.
The following additional Naa80 bisubstrate analogue inhibitors were produced and tested as described above: […]

[5] = molecular target: T4, DDDI24
T4 chain: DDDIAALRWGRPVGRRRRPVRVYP

[6] = molecular target: T5, MDDD24
T5 chain: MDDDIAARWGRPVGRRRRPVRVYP

[7] = molecular target: T6, MDEL24
T6 chain: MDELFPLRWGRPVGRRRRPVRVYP

Molecule: CoA-Ac-SSNlePK-folic acid: CoA-Ac-SS(Nle)PK (SEQ ID NO: 23) carrying folic acid as targeting moiety ({CoA-Ac}-SS[Nle]PK; not fully specified (C-terminus); also: folic acid conjugate as targeting moiety, site not given here)
- phenotype in zebrafish [1]: comparable phenotypes as CoA-Ac-SSNleP-NH2

Molecule: CCCC[C@H](NC(=O)[C@H](CO)NC(=O)[C@@H]1CCCN1C(=O)CSCCNC(=O)CCNC(=O)C(O)C(C)(C)COP(=O)(O)OP(=O)(O)OCC1OC(n2cnc3c(N)ncnc32)C(O)C1OP(=O)(O)O)C(=O)N1CCC[C@H]1C(N)=O (stereo partly drawn) [CoA-Ac-PS(Nle)P]
- IC50 [2]: > 1000 µM

Molecule: CC[C@H](C)[C@H](NC(=O)[C@H](CC(=O)O)NC(=O)[C@H](CC(=O)O)NC(=O)[C@H](CC(=O)O)NC(=O)CSCCNC(=O)CCNC(=O)C(O)C(C)(C)COP(=O)(O)OP(=O)(O)OCC1OC(n2cnc3c(N)ncnc32)C(O)C1OP(=O)(O)O)C(N)=O (stereo partly drawn) [CoA-Ac-DDDI-NH2]
- reduced potency for Naa10 compared to Naa80 [3]: 88 fold
- IC50 ([4]; Naa80): 0.38 µM
- more potent Naa80 inhibitor than CoA-Ac-EEEI-NH2 ([4]; ratio of IC50 values): 3 fold
- more potent Naa80 inhibitor than CoA-Ac-MDEL-NH2 ([4]; ratio of IC50 values): 3.3 fold

B1: MBP-HishNAA80 fusion protein (MBP-Naa80) (protein)
chain: MQELTLSPGPAKLTPTLDPTHRMELILSTSPAELTLDPACQPKLPLDSTCQPEMTFNPGPTELTLDPEHQPEETPAPSLAELTLEPVHRRPELLDACADLINDQWPRSRTSRLHSLGQSSDAFPLCLMLLSPHPTLEAAPVVVGHARLSRVLNQPQSLLVETVVVARALRGRGFGRRLMEGLEVFARARGFRKLHLTTHDQVHFYTHLGYQLGEPVQGLVFTSRRLPATLLNAFPTAPSPRPPRKAPNLTAQAAPRGPKGPPLPPPPPLPECLTISPPVPSGPPSKSLLETQYQNVRGRPIFWMEKDI
- substrate ranking by product formation [5]: its cellular substrate, processed β-actin, DDDI24 (SEQ ID NO: 41) ranked third
- substrate ranking by product formation [6]: the second best substrate, MDDD24
- product formation, fold higher compared to the second best substrate MDDD24 [7]: a 5-fold higher product formation compared to the second best substrate, MDDD24

— patent US20200323888A1, “INHIBITORS” (VESTLANDETS INNOVASJONSSELSKAP AS, priority 2017, published 2020)
